For this data set the following is noted: 101.33 kPa, Liquid; for speed of sound: Sing-around technique in a fixed-path interferometer; for mass density: Vibrating tube method.

Numbers after ± are expanded uncertainties.

A word on the speed of sound: it is the propagation velocity of pressure waves in the medium. In general, mass density refers to the mass of a sample divided by its volume. With `CCCCCCCCCCO` [decan-1-ol], the speed of sound reads like this: (298.15 K) 1380 ± 3 m/s; (303.15 K) 1363 ± 3 m/s; (308.15 K) 1346 ± 3 m/s; (313.15 K) 1329 ± 3 m/s; (318.15 K) 1312 ± 3 m/s; (323.15 K) 1296 ± 3 m/s. In addition, the mass density (298.15 K) worked out at 826.36 ± 0.24 kg/m3; the mass density (303.15 K) turned out to be 822.88 ± 0.24 kg/m3; the mass density (308.15 K) amounted to 819.43 ± 0.24 kg/m3; the mass density (313.15 K) was determined as 815.97 ± 0.24 kg/m3; the mass density (318.15 K) is 812.49 ± 0.24 kg/m3; the mass density (323.15 K) is 809.03 ± 0.24 kg/m3.
For `CCCCCCCCO` [octan-1-ol], the speed of sound by setting is: (298.15 K) 1349 ± 3 m/s; (303.15 K) 1332 ± 3 m/s; (308.15 K) 1315 ± 3 m/s; (313.15 K) 1299 ± 3 m/s; (318.15 K) 1282 ± 3 m/s; (323.15 K) 1265 ± 3 m/s. The mass density is 821.74 ± 0.26 kg/m3 (298.15 K); 818.26 ± 0.26 kg/m3 (303.15 K); 814.76 ± 0.26 kg/m3 (308.15 K); 811.24 ± 0.26 kg/m3 (313.15 K); 807.69 ± 0.26 kg/m3 (318.15 K); 804.12 ± 0.26 kg/m3 (323.15 K).
